Experimental data as given in PubChem BioAssay (NCI).
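Briefly, cells in 96-well plates were exposed to five compound concentrations for 48 h, and endpoints were estimated by linear interpolation. At the TGI there is no net growth.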

What was measured:
Test in all cases: inhibition of tumour cell growth, NCI panel, 48 h
[1] = test system: IGROV1 ovarian
[2] = test system: SNB-19 CNS
[3] = test system: MCF7 breast
[4] = test system: A549 NSCLC
[5] = test system: SK-MEL-28 melanoma
[6] = test system: SR leukemia
[7] = test system: RXF 393 renal
[8] = test system: UO-31 renal
[9] = test system: SK-MEL-5 melanoma
[10] = test system: SW-620 colon
[11] = test system: CCRF-CEM leukemia
[12] = test system: SF-539 CNS
[13] = test system: HCT-116 colon
[14] = test system: HCC-2998 colon
[15] = test system: MALME-3M melanoma
[16] = test system: HCT-15 colon
[17] = test system: CAKI-1 renal
[18] = test system: RPMI-8226 leukemia
[19] = test system: BT-549 breast
[20] = test system: MDA-MB-435
[21] = test system: MOLT-4 leukemia
[22] = test system: OVCAR-3 ovarian
[23] = test system: SNB-75 CNS
[24] = test system: U251 CNS
[25] = test system: HS 578T breast
[26] = test system: SK-OV-3 ovarian
[27] = test system: NCI-H226 lung
[28] = test system: OVCAR-4 ovarian
[29] = test system: HL-60(TB) leukemia
[30] = test system: NCI/ADR-RES ovarian
[31] = test system: SN12C renal
[32] = test system: SF-295 CNS
[33] = test system: K-562 leukemia
[34] = test system: UACC-257 melanoma
[35] = test system: DU-145 prostate
[36] = test system: TK-10 renal
[37] = test system: NCI-H23 lung
[38] = test system: MDA-MB-231 breast
[39] = test system: PC-3 prostate
[40] = test system: HT29 colon
[41] = test system: OVCAR-8 ovarian
[42] = test system: HOP-62 NSCLC
[43] = test system: M14 melanoma
[44] = test system: COLO 205 colon
[45] = test system: 786-0 renal
[46] = test system: MDA-N
[47] = test system: T-47D breast
[48] = test system: KM12 colon
[49] = test system: SK-MEL-2 melanoma
[50] = test system: NCI-H460 lung
[51] = test system: UACC-62 melanoma
[52] = test system: LOX IMVI melanoma
[53] = test system: A498 renal
[54] = test system: HOP-92 NSCLC
[55] = test system: SF-268 CNS
[56] = test system: OVCAR-5 ovarian
[57] = test system: ACHN renal
[58] = test system: EKVX NSCLC
[59] = test system: NCI-H522 lung

## C=CC(CCc1ccc(C(=O)OCC)cc1)c1c(N)nc(N)[nH]c1=O (configuration not stated)
[1]
  TGI: > 100 µM
[2]
  TGI: > 100 µM
[3]
  TGI: > 100 µM
[4]
  TGI: > 100 µM
[5]
  TGI: > 100 µM
[6]
  TGI: > 100 µM
[7]
  TGI: > 100 µM
[8]
  TGI: > 100 µM
[9]
  TGI: > 100 µM
[10]
  TGI: > 100 µM
[11]
  TGI: > 100 µM
[12]
  TGI: > 100 µM
[13]
  TGI: > 100 µM
[14]
  TGI: > 100 µM
[15]
  TGI: > 100 µM
[16]
  TGI: > 100 µM
[17]
  TGI: > 100 µM
[18]
  TGI: > 100 µM
[19]
  TGI: > 100 µM
[20]
  TGI: > 100 µM
[21]
  TGI: > 100 µM
[22]
  TGI: > 100 µM
[23]
  TGI: > 100 µM
[24]
  TGI: > 100 µM
[25]
  TGI: > 100 µM
[26]
  TGI: > 100 µM
[27]
  TGI: > 100 µM
[28]
  TGI: > 100 µM
[29]
  TGI: > 100 µM
[30]
  TGI: > 100 µM
[31]
  TGI: > 100 µM
[32]
  TGI: > 100 µM
[33]
  TGI: > 100 µM
[34]
  TGI: > 100 µM
[35]
  TGI: > 100 µM
[36]
  TGI: > 100 µM
[37]
  TGI: > 100 µM
[38]
  TGI: > 100 µM
[39]
  TGI: > 100 µM
[40]
  TGI: > 100 µM
[41]
  TGI: > 100 µM
[42]
  TGI: > 100 µM
[43]
  TGI: > 100 µM
[44]
  TGI: > 100 µM
[45]
  TGI: > 100 µM
[46]
  TGI: > 100 µM
[47]
  TGI: > 100 µM
[48]
  TGI: > 100 µM
[49]
  TGI: > 100 µM
[50]
  TGI: > 100 µM
[51]
  TGI: > 100 µM
[52]
  TGI: > 100 µM
[53]
  TGI: > 100 µM
[54]
  TGI: 83.8 µM
[55]
  TGI: > 100 µM

## Cc1ccc([N+](=O)[O-])cc1S(=O)(=O)Nc1ccc(C2=NNC(c3ccccc3)C2)cc1 (configuration not stated)
[1]
  TGI: > 100 µM
[2]
  TGI: > 100 µM
[3]
  TGI: 43.7 µM
[4]
  TGI: > 100 µM
[5]
  TGI: > 100 µM
[6]
  TGI: 48.7 µM
[7]
  TGI: 30.4 µM
[8]
  TGI: 71.5 µM
[9]
  TGI: 30.9 µM
[10]
  TGI: > 100 µM
[12]
  TGI: 89.2 µM
[13]
  TGI: 33.1 µM
[14]
  TGI: 44.9 µM
[15]
  TGI: 46 µM
[16]
  TGI: 62.1 µM
[17]
  TGI: 53.6 µM
[56]
  TGI: > 100 µM
[18]
  TGI: > 100 µM
[19]
  TGI: 52 µM
[20]
  TGI: 44.6 µM
[21]
  TGI: 39.8 µM
[22]
  TGI: 20.4 µM
[23]
  TGI: > 100 µM
[25]
  TGI: > 100 µM
[57]
  TGI: 54.2 µM
[26]
  TGI: 58.8 µM
[27]
  TGI: > 100 µM
[28]
  TGI: 54.4 µM
[58]
  TGI: > 100 µM
[29]
  TGI: 54.2 µM
[30]
  TGI: 92.2 µM
[31]
  TGI: 59.2 µM
[32]
  TGI: 21.7 µM
[33]
  TGI: 85 µM
[34]
  TGI: 40.2 µM
[35]
  TGI: 92 µM
[36]
  TGI: > 100 µM
[37]
  TGI: 89.8 µM
[38]
  TGI: 77.5 µM
[39]
  TGI: > 100 µM
[40]
  TGI: > 100 µM
[41]
  TGI: > 100 µM
[42]
  TGI: 27.2 µM
[43]
  TGI: 52.3 µM
[44]
  TGI: 41.4 µM
[45]
  TGI: 74.1 µM
[59]
  TGI: 57 µM
[46]
  TGI: 92.7 µM
[47]
  TGI: 28.5 µM
[48]
  TGI: 34.4 µM
[49]
  TGI: 45.4 µM
[50]
  TGI: 37.6 µM
[51]
  TGI: 24.3 µM
[53]
  TGI: 68.9 µM
[54]
  TGI: > 100 µM
[55]
  TGI: > 100 µM

## COCN(CCC1=CCCCC1)C(=O)OC
[1]
  TGI: > 100 µM
[2]
  TGI: > 100 µM
[3]
  TGI: > 100 µM
[4]
  TGI: > 100 µM
[5]
  TGI: > 100 µM
[6]
  TGI: > 100 µM
[7]
  TGI: > 100 µM
[8]
  TGI: > 100 µM
[9]
  TGI: > 100 µM
[10]
  TGI: > 100 µM
[13]
  TGI: > 100 µM
[14]
  TGI: > 100 µM
[15]
  TGI: > 100 µM
[16]
  TGI: > 100 µM
[17]
  TGI: > 100 µM
[56]
  TGI: > 100 µM
[18]
  TGI: > 100 µM
[19]
  TGI: > 100 µM
[20]
  TGI: > 100 µM
[21]
  TGI: > 100 µM
[22]
  TGI: > 100 µM
[23]
  TGI: > 100 µM
[24]
  TGI: > 100 µM
[25]
  TGI: > 100 µM
[57]
  TGI: > 100 µM
[26]
  TGI: > 100 µM
[28]
  TGI: > 100 µM
[58]
  TGI: > 100 µM
[30]
  TGI: > 100 µM
[32]
  TGI: > 100 µM
[33]
  TGI: > 100 µM
[34]
  TGI: > 100 µM
[35]
  TGI: > 100 µM
[36]
  TGI: > 100 µM
[37]
  TGI: > 100 µM
[38]
  TGI: > 100 µM
[39]
  TGI: > 100 µM
[40]
  TGI: > 100 µM
[41]
  TGI: > 100 µM
[42]
  TGI: > 100 µM
[43]
  TGI: > 100 µM
[44]
  TGI: > 100 µM
[45]
  TGI: > 100 µM
[59]
  TGI: > 100 µM
[46]
  TGI: > 100 µM
[47]
  TGI: > 100 µM
[48]
  TGI: > 100 µM
[49]
  TGI: > 100 µM
[50]
  TGI: > 100 µM
[51]
  TGI: > 100 µM
[53]
  TGI: > 100 µM
[54]
  TGI: > 100 µM
[55]
  TGI: > 100 µM

## OCC(O)COCn1nncc1Cn1ncc2c(SCc3ccccc3)ncnc21 (configuration not stated)
[1]
  TGI: > 100 µM
[2]
  TGI: > 100 µM
[3]
  TGI: > 100 µM
[4]
  TGI: > 100 µM
[5]
  TGI: > 100 µM
[8]
  TGI: > 100 µM
[9]
  TGI: > 100 µM
[10]
  TGI: > 100 µM
[11]
  TGI: > 100 µM
[12]
  TGI: > 100 µM
[13]
  TGI: > 100 µM
[14]
  TGI: > 100 µM
[16]
  TGI: > 100 µM
[17]
  TGI: > 100 µM
[56]
  TGI: > 100 µM
[19]
  TGI: > 100 µM
[20]
  TGI: > 100 µM
[22]
  TGI: > 100 µM
[24]
  TGI: > 100 µM
[25]
  TGI: 25.7 µM
[57]
  TGI: > 100 µM
[26]
  TGI: > 100 µM
[28]
  TGI: > 100 µM
[58]
  TGI: > 100 µM
[30]
  TGI: > 100 µM
[31]
  TGI: > 100 µM
[32]
  TGI: > 100 µM
[34]
  TGI: > 100 µM
[35]
  TGI: > 100 µM
[36]
  TGI: > 100 µM
[37]
  TGI: > 100 µM
[38]
  TGI: > 100 µM
[39]
  TGI: > 100 µM
[40]
  TGI: > 100 µM
[41]
  TGI: > 100 µM
[42]
  TGI: > 100 µM
[43]
  TGI: > 100 µM
[44]
  TGI: > 100 µM
[45]
  TGI: > 100 µM
[59]
  TGI: 33.1 µM
[46]
  TGI: > 100 µM
[47]
  TGI: > 100 µM
[48]
  TGI: > 100 µM
[49]
  TGI: > 100 µM
[51]
  TGI: > 100 µM
[52]
  TGI: > 100 µM
[53]
  TGI: > 100 µM
[55]
  TGI: 41.1 µM
